In publication PMC4774911, “Biochemical Screening of Five Protein Kinases from Plasmodium falciparum against 14,000 Cell-Active Compounds” (PLoS ONE, 2016):

Columns and labels:
[1] = target: T1, Plasmodium falciparum calcium-dependent protein kinase 4 (CDPK4) (Plasmodium falciparum, UniProt Q8IBS5); assay: CDPK4 Kinase-Glo ATP-consumption screen and dose-response; type: biochemical; settings: hits below 1 uM
T1 construct: 6-Histidine (N); made in house
T1 sequence (Q8IBS5 1-528): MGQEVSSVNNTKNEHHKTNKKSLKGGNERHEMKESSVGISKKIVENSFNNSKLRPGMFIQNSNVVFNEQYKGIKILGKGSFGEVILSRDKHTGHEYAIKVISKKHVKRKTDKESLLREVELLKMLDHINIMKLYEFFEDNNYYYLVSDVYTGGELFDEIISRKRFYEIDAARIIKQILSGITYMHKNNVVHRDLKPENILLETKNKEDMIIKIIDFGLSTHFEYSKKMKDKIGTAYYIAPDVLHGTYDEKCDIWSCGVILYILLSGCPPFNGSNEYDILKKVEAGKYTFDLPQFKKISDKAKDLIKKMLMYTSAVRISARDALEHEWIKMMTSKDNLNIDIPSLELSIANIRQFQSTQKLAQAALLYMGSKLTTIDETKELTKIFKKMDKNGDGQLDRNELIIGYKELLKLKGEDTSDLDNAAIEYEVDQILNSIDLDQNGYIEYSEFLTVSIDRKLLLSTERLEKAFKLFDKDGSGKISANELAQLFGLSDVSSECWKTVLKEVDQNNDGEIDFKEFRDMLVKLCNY
In short: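 ATP consumption by recombinant P. falciparum CDPK4 or CDPK1 measured as residual ATP by Kinase-Glo luminescence, with 40 μM Syntide-2 substrate and 90 min incubation stopped with 5 mM EGTA. Single-point screen at 1 μM final, followed by dose-response; no-substrate wells as negative control.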

[2] = target: ABL1; assay: biochemical; parameters: species or system human, K562 (extract); replicate k of n = 2 (each experiment ID is one independent experiment; two experiment IDs per compound); settings: human; read-out: KDapp
[3] = target: LOC100128443; assay: biochemical; parameters: species or system human, K562 (extract); replicate k of n = 2 (each experiment ID is one independent experiment; two experiment IDs per compound); settings: human; read-out: KDapp
[4] = test system: DD2; parameters: method as in F.J. Gamo et al., Nature 2010; settings: downloaded from ChEMBL, ref F.J. Gamo et al., Nature 2010; cited from earlier work
[5] = target: T2, BMX (Homo sapiens, UniProt P51813); assay: biochemical
T2 sequence (P51813 whole entry): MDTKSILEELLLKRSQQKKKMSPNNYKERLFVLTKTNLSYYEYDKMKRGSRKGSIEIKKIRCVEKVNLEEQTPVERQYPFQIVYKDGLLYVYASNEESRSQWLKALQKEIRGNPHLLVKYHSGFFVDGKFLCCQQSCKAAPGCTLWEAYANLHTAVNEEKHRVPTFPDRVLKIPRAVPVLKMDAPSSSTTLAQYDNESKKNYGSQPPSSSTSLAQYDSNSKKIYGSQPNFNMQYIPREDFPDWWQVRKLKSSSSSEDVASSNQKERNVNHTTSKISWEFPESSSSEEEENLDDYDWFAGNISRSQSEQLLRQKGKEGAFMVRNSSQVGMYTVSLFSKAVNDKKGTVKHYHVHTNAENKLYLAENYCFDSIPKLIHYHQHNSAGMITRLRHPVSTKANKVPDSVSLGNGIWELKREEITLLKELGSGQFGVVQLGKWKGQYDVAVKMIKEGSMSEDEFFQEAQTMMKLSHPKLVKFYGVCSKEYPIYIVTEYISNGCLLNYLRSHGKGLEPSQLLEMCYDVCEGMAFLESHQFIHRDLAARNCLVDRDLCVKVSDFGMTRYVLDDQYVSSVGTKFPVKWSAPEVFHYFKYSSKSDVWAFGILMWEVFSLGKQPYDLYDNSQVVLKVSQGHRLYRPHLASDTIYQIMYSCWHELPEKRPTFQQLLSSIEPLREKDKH

[6] = target: KIT (Homo sapiens, UniProt P10721); assay: biochemical
[7] = target: MAPKAPK3 (Homo sapiens, UniProt Q16644); assay: biochemical
[8] = target: PIK3C3 (Homo sapiens, UniProt Q8NEB9); assay: biochemical
Chain of PIK3C3 (Q8NEB9 whole entry): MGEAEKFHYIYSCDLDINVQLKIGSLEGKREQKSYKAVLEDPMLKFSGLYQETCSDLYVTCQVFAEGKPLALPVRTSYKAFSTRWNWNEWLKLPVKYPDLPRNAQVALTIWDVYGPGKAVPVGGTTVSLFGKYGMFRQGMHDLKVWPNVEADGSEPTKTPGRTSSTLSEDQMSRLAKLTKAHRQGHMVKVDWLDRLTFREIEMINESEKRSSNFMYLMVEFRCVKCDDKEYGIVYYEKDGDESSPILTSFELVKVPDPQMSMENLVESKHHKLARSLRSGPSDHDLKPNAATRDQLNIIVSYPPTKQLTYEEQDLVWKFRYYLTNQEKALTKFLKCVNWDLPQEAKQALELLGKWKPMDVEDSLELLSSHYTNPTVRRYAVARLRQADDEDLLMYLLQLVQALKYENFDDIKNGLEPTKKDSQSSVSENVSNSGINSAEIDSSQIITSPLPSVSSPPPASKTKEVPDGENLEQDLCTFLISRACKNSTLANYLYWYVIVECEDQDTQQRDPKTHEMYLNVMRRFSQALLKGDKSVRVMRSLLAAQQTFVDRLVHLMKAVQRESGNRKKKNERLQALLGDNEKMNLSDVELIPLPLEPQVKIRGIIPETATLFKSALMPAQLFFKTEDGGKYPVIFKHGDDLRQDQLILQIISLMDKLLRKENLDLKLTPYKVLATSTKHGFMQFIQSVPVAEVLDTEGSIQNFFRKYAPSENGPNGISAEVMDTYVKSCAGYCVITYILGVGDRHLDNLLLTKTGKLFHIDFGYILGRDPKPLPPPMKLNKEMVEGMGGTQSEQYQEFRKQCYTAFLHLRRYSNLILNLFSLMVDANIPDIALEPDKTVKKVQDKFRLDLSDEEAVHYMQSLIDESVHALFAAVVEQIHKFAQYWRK

[9] = target: PRKACA (Homo sapiens, UniProt P17612); assay: biochemical
[10] = target: STK38L (Homo sapiens, UniProt Q9Y2H1); assay: biochemical
Chain of STK38L (Q9Y2H1 whole entry): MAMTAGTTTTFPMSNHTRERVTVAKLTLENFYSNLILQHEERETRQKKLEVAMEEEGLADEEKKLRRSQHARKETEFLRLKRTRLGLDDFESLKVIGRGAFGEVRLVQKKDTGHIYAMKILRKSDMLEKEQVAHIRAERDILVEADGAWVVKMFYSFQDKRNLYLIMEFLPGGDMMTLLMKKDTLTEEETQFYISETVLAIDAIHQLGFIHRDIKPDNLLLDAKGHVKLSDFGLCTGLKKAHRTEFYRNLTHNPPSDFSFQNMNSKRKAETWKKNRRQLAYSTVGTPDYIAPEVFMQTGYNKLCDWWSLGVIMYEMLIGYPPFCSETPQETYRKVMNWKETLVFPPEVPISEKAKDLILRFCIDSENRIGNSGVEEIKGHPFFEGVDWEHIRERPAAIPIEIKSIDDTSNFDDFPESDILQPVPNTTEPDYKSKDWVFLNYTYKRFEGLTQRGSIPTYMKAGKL

[11] = target: T2, BMX; assay: biochemical; parameters: endogenous in cells; host or cells: K562 cell extract; species or system K562 (extract); replicate k of n = 2 (each experiment ID is one independent experiment; two experiment IDs per compound); settings: read-out: KDapp
[12] = target: HIPK1 (Homo sapiens, UniProt Q86Z02); assay: biochemical
[13] = target: HIPK2 (Homo sapiens, UniProt Q9H2X6); assay: biochemical
[14] = target: ILK (Homo sapiens, UniProt Q13418); assay: biochemical
Chain of ILK (Q13418 whole entry): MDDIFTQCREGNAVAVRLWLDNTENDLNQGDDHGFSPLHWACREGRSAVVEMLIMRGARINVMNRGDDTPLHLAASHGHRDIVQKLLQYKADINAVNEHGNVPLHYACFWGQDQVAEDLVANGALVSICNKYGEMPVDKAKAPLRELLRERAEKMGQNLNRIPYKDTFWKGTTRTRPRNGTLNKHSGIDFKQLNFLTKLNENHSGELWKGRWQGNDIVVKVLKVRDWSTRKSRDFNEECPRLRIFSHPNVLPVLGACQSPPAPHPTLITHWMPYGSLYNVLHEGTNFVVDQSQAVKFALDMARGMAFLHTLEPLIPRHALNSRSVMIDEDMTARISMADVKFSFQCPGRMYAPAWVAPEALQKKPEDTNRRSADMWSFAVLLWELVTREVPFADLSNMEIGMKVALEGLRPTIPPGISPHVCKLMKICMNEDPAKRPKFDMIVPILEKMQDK

[15] = target: LRRK2 (Homo sapiens, UniProt Q5S007); assay: biochemical
[16] = target: PLK1 (Homo sapiens, UniProt P53350); assay: biochemical
[17] = target: AAK1 (Homo sapiens, UniProt Q2M2I8); assay: Kinobead competition assay in K562 extract: AAK1
Chain of AAK1 (Q2M2I8 whole entry): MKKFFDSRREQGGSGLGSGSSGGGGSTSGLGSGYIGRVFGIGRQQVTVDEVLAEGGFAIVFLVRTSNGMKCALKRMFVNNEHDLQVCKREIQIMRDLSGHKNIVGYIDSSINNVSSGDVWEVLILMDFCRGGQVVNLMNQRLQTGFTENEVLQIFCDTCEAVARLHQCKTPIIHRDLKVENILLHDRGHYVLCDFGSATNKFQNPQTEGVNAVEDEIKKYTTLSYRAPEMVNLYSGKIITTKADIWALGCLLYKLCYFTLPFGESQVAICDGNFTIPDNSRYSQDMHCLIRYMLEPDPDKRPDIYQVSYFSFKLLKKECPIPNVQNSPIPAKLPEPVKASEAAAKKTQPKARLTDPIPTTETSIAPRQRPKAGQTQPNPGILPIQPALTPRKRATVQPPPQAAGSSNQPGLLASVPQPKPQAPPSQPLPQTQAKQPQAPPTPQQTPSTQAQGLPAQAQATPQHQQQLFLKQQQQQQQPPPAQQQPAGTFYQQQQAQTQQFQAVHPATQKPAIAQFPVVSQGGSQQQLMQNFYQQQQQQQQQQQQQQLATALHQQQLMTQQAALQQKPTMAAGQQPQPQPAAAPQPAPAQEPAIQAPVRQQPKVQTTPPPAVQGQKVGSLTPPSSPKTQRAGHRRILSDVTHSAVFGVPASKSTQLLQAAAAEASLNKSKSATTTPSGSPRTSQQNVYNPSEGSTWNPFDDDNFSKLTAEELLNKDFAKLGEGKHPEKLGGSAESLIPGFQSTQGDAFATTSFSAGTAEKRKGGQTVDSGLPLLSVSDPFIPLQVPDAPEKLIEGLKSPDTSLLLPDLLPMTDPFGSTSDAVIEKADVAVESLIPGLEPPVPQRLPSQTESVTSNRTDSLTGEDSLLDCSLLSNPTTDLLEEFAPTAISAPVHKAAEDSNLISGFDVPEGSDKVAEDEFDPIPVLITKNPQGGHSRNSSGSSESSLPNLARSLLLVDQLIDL
Procedure: (§1) Kinobeads were prepared as described [25, 26]. […] Briefly, Kinobeads were washed and equilibrated in lysis buffer (50 mM Tris-Cl, pH 7.4, 0.4% Igepal-CA630, 1.5 mM MgCl2, 5% Glycerol, 150 mM NaCl, 25 mM NaF, 1 mM Na3VO4, 1 mM DTT, and 1 complete EDTA-free protease inhibitor tablet (Roche) per 25 ml). […] Digestion, labeling with TMT isobaric mass tags, peptide fractionation, and mass spectrometric analyses were performed essentially as described [27]. Criteria for protein quantification were: a minimum of 2 sequence assignments matching to unique peptides was required (FDR for quantified proteins <<0.1%), Mascot ion score > 15, signal to background ratio of the precursor ion > 4, signal to interference > 0.5 [28]. Reporter ion intensities were multiplied by ion accumulation time, yielding an area value proportional to the number of reporter ions present in the mass analyzer. Peptide fold changes were corrected for isotope purity as described and adjusted for interference caused by co-eluting nearly isobaric peaks as estimated by the signal-to-interference measure [29]. Protein quantification was achieved using a sum-based bootstrap algorithm [30]. Apparent dissociation constants were determined by taking into account the protein depletion by the beads as described [27].
(§2) Kinobeads were incubated with K562 cell extract either in the presence of vehicle (DMSO) or TCAMS compound, respectively (20 μM-0.03 μM). Protein kinases captured by the beads (140–150 kinases per experiment) were quantified following tryptic digestion, isobaric peptide tagging, and LC-MS/MS analysis. Kinases were identified as potential targets by virtue of their reduced capture in the presence of excess TCAMS compounds. Apparent dissociation constants (Kd’s) were calculated from the extent to which capture of each kinase was reduced at each compound concentration.

[18] = target: TNK2 (Homo sapiens, UniProt Q07912); assay: Kinobead competition assay in K562 extract: TNK2
Chain of TNK2 (Q07912 whole entry): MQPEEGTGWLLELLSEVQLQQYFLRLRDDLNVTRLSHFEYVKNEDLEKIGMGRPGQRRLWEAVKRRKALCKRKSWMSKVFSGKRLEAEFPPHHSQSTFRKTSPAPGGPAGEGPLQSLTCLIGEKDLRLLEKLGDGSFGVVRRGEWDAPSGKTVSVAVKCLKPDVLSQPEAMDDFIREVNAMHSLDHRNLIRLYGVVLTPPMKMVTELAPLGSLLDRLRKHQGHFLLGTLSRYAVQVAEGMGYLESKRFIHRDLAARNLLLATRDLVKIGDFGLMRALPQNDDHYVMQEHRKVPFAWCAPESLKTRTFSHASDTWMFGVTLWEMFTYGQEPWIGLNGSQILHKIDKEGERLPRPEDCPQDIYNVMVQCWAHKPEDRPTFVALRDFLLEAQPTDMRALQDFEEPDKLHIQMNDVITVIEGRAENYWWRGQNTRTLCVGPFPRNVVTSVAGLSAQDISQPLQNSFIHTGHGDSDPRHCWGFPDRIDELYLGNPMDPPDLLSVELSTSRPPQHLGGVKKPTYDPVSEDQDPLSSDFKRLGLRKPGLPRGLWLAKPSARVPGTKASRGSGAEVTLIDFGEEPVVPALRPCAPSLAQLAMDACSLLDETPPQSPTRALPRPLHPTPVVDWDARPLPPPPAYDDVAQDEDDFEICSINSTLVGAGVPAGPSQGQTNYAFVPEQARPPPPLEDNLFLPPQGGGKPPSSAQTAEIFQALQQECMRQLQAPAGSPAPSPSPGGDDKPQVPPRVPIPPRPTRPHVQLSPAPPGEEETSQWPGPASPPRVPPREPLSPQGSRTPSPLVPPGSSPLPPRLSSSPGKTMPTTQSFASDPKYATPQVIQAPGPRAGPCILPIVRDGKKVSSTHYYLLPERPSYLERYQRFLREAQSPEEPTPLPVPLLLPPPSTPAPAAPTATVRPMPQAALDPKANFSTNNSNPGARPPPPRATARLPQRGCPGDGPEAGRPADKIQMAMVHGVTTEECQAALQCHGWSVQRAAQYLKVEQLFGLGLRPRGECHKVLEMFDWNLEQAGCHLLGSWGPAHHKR
Procedure: as §1, §2

[19] = test system: P. falciparum DD2; parameters: method as in ChEMBL; settings: ref ChEMBL; cited from earlier work
[20] = target: ARAF (Homo sapiens, UniProt P10398); assay: biochemical
[21] = target: PRKCI (Homo sapiens, UniProt P41743); assay: biochemical
[22] = target: RPS6KB1 (Homo sapiens, UniProt P23443); assay: biochemical
Chain of RPS6KB1 (P23443 whole entry): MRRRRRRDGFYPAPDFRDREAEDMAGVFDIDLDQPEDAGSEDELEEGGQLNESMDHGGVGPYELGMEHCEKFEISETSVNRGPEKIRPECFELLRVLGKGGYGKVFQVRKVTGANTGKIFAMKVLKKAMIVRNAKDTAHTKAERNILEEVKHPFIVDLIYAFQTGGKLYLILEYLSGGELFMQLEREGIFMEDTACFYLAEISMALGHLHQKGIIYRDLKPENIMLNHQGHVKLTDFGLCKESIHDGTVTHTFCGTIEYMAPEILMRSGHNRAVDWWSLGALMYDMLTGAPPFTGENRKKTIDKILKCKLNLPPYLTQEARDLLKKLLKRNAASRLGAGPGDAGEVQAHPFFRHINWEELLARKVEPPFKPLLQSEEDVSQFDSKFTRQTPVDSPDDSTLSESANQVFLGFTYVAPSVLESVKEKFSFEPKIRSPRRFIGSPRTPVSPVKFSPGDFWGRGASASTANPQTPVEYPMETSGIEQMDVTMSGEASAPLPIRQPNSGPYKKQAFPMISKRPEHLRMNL

[23] = target: TAOK1 (Homo sapiens, UniProt Q7L7X3); assay: biochemical
[24] = AAK1, K-562 extract, conc. series 20.0-0.0uM, channel assignment not given
[25] = TNK2, K-562 extract, conc. series 20.0-0.0uM, channel assignment not given

Work on `CN1CCN(c2ccc(Nc3ncc(C#N)c(Nc4ccccc4C(N)=O)n3)cc2)CC1.Cl` [TCMDC-134116] yielded an IC50 [1] of 188 nM, a Kd [2] of 58.6 nM and a Kd [3] of 199 nM. The PCT_INHB_DD2 [4] was 93%, the IC50 [5] was 620 nM and the IC50 [6] was 1300 nM. The IC50 [7] was greater than 20000 nM, the IC50 [8] was 1100 nM and the IC50 [9] was 1500 nM. For the same compound, the IC50 [10] was 600 nM and the Kd [11] was 285 nM.

In the case of `Cl.NCC1(c2nc(-c3ccc(Cl)c(O)c3)c(-c3ccncc3)[nH]2)CCCCC1` [TCMDC-141154], the IC50 [12] is reported as greater than 20000 nM, the IC50 [13] is reported as greater than 20000 nM and the IC50 [14] is reported as greater than 20000 nM. For the same compound, the IC50 [15] was greater than 20000 nM, the IC50 [16] was greater than 20000 nM and the IC50 [17] was greater than 20000 nM. The “abundance relative to vehicle TMT126” value ([17]; AAK1, K-562 extract, conc. series 20.0, 4.0, 0.8, 0.16, 0.032, 0.0uM, channel assignment not given) was 0.86, the “abundance relative to vehicle TMT127L” value [17, 24] was 0.83 and the “abundance relative to vehicle TMT128H” value [17, 24] was 0.89. The “abundance relative to vehicle TMT129L” value [17, 24] was 1.02, the “abundance relative to vehicle TMT130H” value [17, 24] was 1.01 and the Hill ([17]; AAK1, kinobead competition curve) was 0.56. The IC50 [18] was greater than 20000 nM, the “abundance relative to vehicle TMT126” value ([18]; TNK2, K-562 extract, conc. series 20.0, 4.0, 0.8, 0.16, 0.032, 0.0uM, channel assignment not given) was 0.90 and the “abundance relative to vehicle TMT127L” value [18, 25] was 1.02. For the same compound, the “abundance relative to vehicle TMT128H” value [18, 25] was 1.06, the “abundance relative to vehicle TMT129L” value [18, 25] was 1.03 and the “abundance relative to vehicle TMT130H” value [18, 25] was 1.20. It also gave a Hill ([18]; TNK2, kinobead competition curve) of 1.

For `CN(C)CC(O)COc1ccc(Nc2ncc([N+](=O)[O-])c(Nc3ccccc3O)n2)cc1.O=C(O)C(F)(F)F` (centres unmarked) [TCMDC-141399], the PCT_INHB_DD2 [19] is listed as 20, the IC50 [20] is listed as greater than 20000 nM and the IC50 [21] is listed as greater than 20000 nM. The IC50 [22] was greater than 20000 nM and the IC50 [23] was 6100 nM.
